Test results from patent US9409905B2, “Antibacterial compounds and methods for use” (PTC THERAPEUTICS, INC., priority 2011, dated 2016).
Values after ≈ are worked out from the molar mass of the structure shown.

Columns and labels:
[1] = test system: Staphylococcus aureus (S. aureus) 29213; assay: Antibacterial activity, microbroth dilution MIC (Table 1); type: cell-based; settings: microbroth dilution, Gram-positive S. aureus 29213, read-out: MIC, 29213
Summary of the method: (§1)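 Potency is reported as minimum inhibitory concentration in μg/mL, determined by broth microdilution as the lowest level of compound that stops growth visible to the eye.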

[2] = test system: Escherichia coli (E. coli) BAS849; assay: as above; type: cell-based; settings: microbroth dilution, super sensitive Gram-negative E. coli BAS849, read-out: MIC, BAS849
Summary of the method: as §1

[3] = test system: E. coli 25922; assay: as above; type: cell-based, Escherichia coli; settings: Escherichia coli; microbroth dilution; control Gram-negative E. coli 25922 strain; read-out: MIC, 25922
Summary of the method: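 Using broth microdilution, MIC endpoints (μg/mL) mark where visible growth no longer appears; the panel spans sensitive and control Gram-negative strains plus a Gram-positive strain.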

[4] = test system: E. coli LZ3111; assay: Antibacterial activity, MIC, quinolone resistant strain (Table 2); type: cell-based; settings: Escherichia coli, LZ3111, read-out: MIC LZ3111
Summary of the method: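 Strain carries mutations conferring high-level quinolone resistance; tested by microbroth dilution, MIC recorded in μg/mL as lowest concentration preventing visible growth.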

SMILES | MIC [1] | MIC [2] | MIC [3] | MIC [4]
CCc1c(-c2ccc3c(c2)cc(CNCc2cccc(OC)c2)n3C)[nH]c(=O)c(C(=O)O)c1O [Cpd 296, 5-ethyl-4-hydroxy-6-(2-((3-methoxybenzylamino)methyl)-1-methyl-1H-indol-5-yl)-2-oxo-1,2-dihydropyridine-3-carboxylic acid] | 3.5 to 12.5 µg/mL (≈ 7.58 to 27.1 µM) | < 1 µg/mL | < 1 µg/mL | 12.5 to 150 µg/mL (≈ 27.1 to 325 µM)
CCc1c(-c2ccc3c(c2)cc(CNCc2ccc(C)cc2)n3C)[nH]c(=O)c(C(=O)O)c1O [Cpd 297, 5-ethyl-4-hydroxy-6-(1-methyl-2-((4-methylbenzylamino)methyl)-1H-indol-5-yl)-2-oxo-1,2-dihydropyridine-3-carboxylic acid] | 1 to 3.5 µg/mL (≈ 2.24 to 7.86 µM) | < 1 µg/mL | < 1 µg/mL | 12.5 to 150 µg/mL (≈ 28.1 to 337 µM)
CCc1c(-c2ccc3c(c2)cc(CNCc2cccc(F)c2)n3C)[nH]c(=O)c(C(=O)O)c1O [Cpd 298, 5-ethyl-6-(2-((3-fluorobenzylamino)methyl)-1-methyl-1H-indol-5-yl)-4-hydroxy-2-oxo-1,2-dihydropyridine-3-carboxylic acid] | 1 to 3.5 µg/mL (≈ 2.22 to 7.79 µM) | < 1 µg/mL | 1 to 3.5 µg/mL (≈ 2.22 to 7.79 µM) | 12.5 to 150 µg/mL (≈ 27.8 to 334 µM)
CCc1c(-c2ccc3c(c2)cc(CNCc2ccccc2F)n3C)[nH]c(=O)c(C(=O)O)c1O [Cpd 299, 5-ethyl-6-(2-((2-fluorobenzylamino)methyl)-1-methyl-1H-indol-5-yl)-4-hydroxy-2-oxo-1,2-dihydropyridine-3-carboxylic acid] | 1 to 3.5 µg/mL (≈ 2.22 to 7.79 µM) | < 1 µg/mL | 1 to 3.5 µg/mL (≈ 2.22 to 7.79 µM) | 12.5 to 150 µg/mL (≈ 27.8 to 334 µM)
CCc1c(-c2ccc3c(c2)cc(CN(C)CCOC)n3C)[nH]c(=O)c(C(=O)O)c1O [Cpd 300, 5-ethyl-4-hydroxy-6-(2-(((2-methoxyethyl)(methyl)amino)methyl)-1-methyl-1H-indol-5-yl)-2-oxo-1,2-dihydropyridine-3-carboxylic acid] | 12.5 to 150 µg/mL (≈ 30.2 to 363 µM) | < 1 µg/mL | 3.5 to 12.5 µg/mL (≈ 8.46 to 30.2 µM) | 12.5 to 150 µg/mL (≈ 30.2 to 363 µM)
CCc1c(-c2ccc3c(c2)cc(CNCC2CCCCCC2)n3C)[nH]c(=O)c(C(=O)O)c1O [Cpd 301, 6-(2-((cycloheptylmethylamino)methyl)-1-methyl-1H-indol-5-yl)-5-ethyl-4-hydroxy-2-oxo-1,2-dihydropyridine-3-carboxylic acid] | 3.5 to 12.5 µg/mL (≈ 7.75 to 27.7 µM) | < 1 µg/mL | 12.5 to 150 µg/mL (≈ 27.7 to 332 µM) | 12.5 to 150 µg/mL (≈ 27.7 to 332 µM)
CCc1c(-c2ccc3c(c2)cc(CN(C)CCN(C)C)n3C)[nH]c(=O)c(C(=O)O)c1O [Cpd 303, 6-(2-(((2-(dimethylamino)ethyl)(methyl)amino)methyl)-1-methyl-1H-indol-5-yl)-5-ethyl-4-hydroxy-2-oxo-1,2-dihydropyridine-3-carboxylic acid] | 12.5 to 150 µg/mL (≈ 29.3 to 352 µM) | < 1 µg/mL | 3.5 to 12.5 µg/mL (≈ 8.21 to 29.3 µM) | 12.5 to 150 µg/mL (≈ 29.3 to 352 µM)
CCc1c(-c2ccc3c(c2)cc(C(C)(C)N2CCCC2)n3C)[nH]c(=O)c(C(=O)O)c1O [Cpd 307, 5-ethyl-4-hydroxy-6-(1-methyl-2-(2-(pyrrolidin-1-yl)propan-2-yl)-1H-indol-5-yl)-2-oxo-1,2-dihydropyridine-3-carboxylic acid] | 1 to 3.5 µg/mL (≈ 2.36 to 8.26 µM) | < 1 µg/mL | 12.5 to 150 µg/mL (≈ 29.5 to 354 µM) | 12.5 to 150 µg/mL (≈ 29.5 to 354 µM)
CCc1c(-c2ccc3c(c2)cc(C(C)(C)N(C)C)n3C)[nH]c(=O)c(C(=O)O)c1O [Cpd 308, 6-(2-(2-(dimethylamino)propan-2-yl)-1-methyl-1H-indol-5-yl)-5-ethyl-4-hydroxy-2-oxo-1,2-dihydropyridine-3-carboxylic acid] | 1 to 3.5 µg/mL (≈ 2.52 to 8.81 µM) | < 1 µg/mL | 12.5 to 150 µg/mL (≈ 31.4 to 377 µM) | 12.5 to 150 µg/mL (≈ 31.4 to 377 µM)
Cn1c(CN2CCCC2)cc2cc(-c3[nH]c(=O)c(C(=O)O)c(O)c3-c3ccc(F)cc3)ccc21 [Cpd 309, 5-(4-fluorophenyl)-4-hydroxy-6-(1-methyl-2-(pyrrolidin-1-ylmethyl)-1H-indol-5-yl)-2-oxo-1,2-dihydropyridine-3-carboxylic acid] | 12.5 to 150 µg/mL (≈ 27.1 to 325 µM) | < 1 µg/mL | 3.5 to 12.5 µg/mL (≈ 7.58 to 27.1 µM) | 12.5 to 150 µg/mL (≈ 27.1 to 325 µM)
CN(C)Cc1cc2cc(-c3[nH]c(=O)c(C(=O)O)c(O)c3-c3ccc(F)cc3)ccc2n1C [Cpd 310, 6-(2-((dimethylamino)methyl)-1-methyl-1H-indol-5-yl)-5-(4-fluorophenyl)-4-hydroxy-2-oxo-1,2-dihydropyridine-3-carboxylic acid] | 12.5 to 150 µg/mL (≈ 28.7 to 344 µM) | < 1 µg/mL | 3.5 to 12.5 µg/mL (≈ 8.04 to 28.7 µM) | 12.5 to 150 µg/mL (≈ 28.7 to 344 µM)
Cn1c(CNCC2CC2)cc2cc(-c3[nH]c(=O)c(C(=O)O)c(O)c3-c3ccc(F)cc3)ccc21 [Cpd 311, 6-(2-((cyclopropylmethylamino)methyl)-1-methyl-1H-indol-5-yl)-5-(4-fluorophenyl)-4-hydroxy-2-oxo-1,2-dihydropyridine-3-carboxylic acid] | 12.5 to 150 µg/mL (≈ 27.1 to 325 µM) | < 1 µg/mL | 1 to 3.5 µg/mL (≈ 2.17 to 7.58 µM) | 12.5 to 150 µg/mL (≈ 27.1 to 325 µM)
Cn1c(CN2CCC2)cc2cc(-c3[nH]c(=O)c(C(=O)O)c(O)c3-c3ccc(F)cc3)ccc21 [Cpd 312, 6-(2-(azetidin-1-ylmethyl)-1-methyl-1H-indol-5-yl)-5-(4-fluorophenyl)-4-hydroxy-2-oxo-1,2-dihydropyridine-3-carboxylic acid] | 12.5 to 150 µg/mL (≈ 27.9 to 335 µM) | < 1 µg/mL | 3.5 to 12.5 µg/mL (≈ 7.82 to 27.9 µM) | 12.5 to 150 µg/mL (≈ 27.9 to 335 µM)
CC(C)c1c(-c2ccc3c(c2)cc(CN2CCCC2)n3C)[nH]c(=O)c(C(=O)O)c1O [Cpd 319, 4-hydroxy-5-isopropyl-6-(1-methyl-2-(pyrrolidin-1-ylmethyl)-1H-indol-5-yl)-2-oxo-1,2-dihydropyridine-3-carboxylic acid] | 3.5 to 12.5 µg/mL (≈ 8.55 to 30.5 µM) | < 1 µg/mL | 1 to 3.5 µg/mL (≈ 2.44 to 8.55 µM) | 12.5 to 150 µg/mL (≈ 30.5 to 366 µM)
CC(C)c1c(-c2ccc3c(c2)cc(CN2CCC2)n3C)[nH]c(=O)c(C(=O)O)c1O [Cpd 320, 6-(2-(azetidin-1-ylmethyl)-1-methyl-1H-indol-5-yl)-4-hydroxy-5-isopropyl-2-oxo-1,2-dihydropyridine-3-carboxylic acid] | 3.5 to 12.5 µg/mL (≈ 8.85 to 31.6 µM) | < 1 µg/mL | 1 to 3.5 µg/mL (≈ 2.53 to 8.85 µM) | 12.5 to 150 µg/mL (≈ 31.6 to 379 µM)
CC(C)c1c(-c2ccc3c(c2)cc(CNCC2CC2)n3C)[nH]c(=O)c(C(=O)O)c1O [Cpd 321, 6-(2-((cyclopropylmethylamino)methyl)-1-methyl-1H-indol-5-yl)-4-hydroxy-5-isopropyl-2-oxo-1,2-dihydropyridine-3-carboxylic acid] | 3.5 to 12.5 µg/mL (≈ 8.55 to 30.5 µM) | < 1 µg/mL | 1 to 3.5 µg/mL (≈ 2.44 to 8.55 µM) | 12.5 to 150 µg/mL (≈ 30.5 to 366 µM)
CN(C)Cc1cc2cc(-c3cc(O)c(C(=O)O)c(=O)[nH]3)ccc2n1C [Cpd 326, 6-(2-((dimethylamino)methyl)-1-methyl-1H-indol-5-yl)-4-hydroxy-2-oxo-1,2-dihydropyridine-3-carboxylic acid] | 12.5 to 150 µg/mL (≈ 36.6 to 439 µM) | 12.5 to 150 µg/mL (≈ 36.6 to 439 µM) | 12.5 to 150 µg/mL (≈ 36.6 to 439 µM) | 12.5 to 150 µg/mL (≈ 36.6 to 439 µM)
Cn1c(CN2CCCC2)cc2cc(-c3cc(O)c(C(=O)O)c(=O)[nH]3)ccc21 [Cpd 327, 4-hydroxy-6-(1-methyl-2-(pyrrolidin-1-ylmethyl)-1H-indol-5-yl)-2-oxo-1,2-dihydropyridine-3-carboxylic acid] | 12.5 to 150 µg/mL (≈ 34 to 408 µM) | 3.5 to 12.5 µg/mL (≈ 9.53 to 34 µM) | 12.5 to 150 µg/mL (≈ 34 to 408 µM) | 12.5 to 150 µg/mL (≈ 34 to 408 µM)
CCc1c(-c2ccc3c(c2)cc(CN2CCCC2)n3C)[nH]c(=O)c(C(=O)O)c1N [Cpd 329, 4-amino-5-ethyl-6-(1-methyl-2-(pyrrolidin-1-ylmethyl)-1H-indol-5-yl)-2-oxo-1,2-dihydropyridine-3-carboxylic acid] | 12.5 to 150 µg/mL (≈ 31.7 to 380 µM) | < 1 µg/mL | 3.5 to 12.5 µg/mL (≈ 8.87 to 31.7 µM) | 12.5 to 150 µg/mL (≈ 31.7 to 380 µM)
CCc1c(-c2ccc3c(c2)cc(CN(C)C)n3C)[nH]c(=O)c(C(=O)O)c1N [Cpd 330, 4-amino-6-(2-((dimethylamino)methyl)-1-methyl-1H-indol-5-yl)-5-ethyl-2-oxo-1,2-dihydropyridine-3-carboxylic acid] | 12.5 to 150 µg/mL (≈ 33.9 to 407 µM) | < 1 µg/mL | 3.5 to 12.5 µg/mL (≈ 9.5 to 33.9 µM) | 12.5 to 150 µg/mL (≈ 33.9 to 407 µM)
CCc1c(-c2ccc3c(c2)cc(CN2CCC(N(C)C)C2)n3C)[nH]c(=O)c(C(=O)O)c1N (stereo not shown) [Cpd 332, 4-amino-6-(2-((3-(dimethylamino)pyrrolidin-1-yl)methyl)-1-methyl-1H-indol-5-yl)-5-ethyl-2-oxo-1,2-dihydropyridine-3-carboxylic acid] | 12.5 to 150 µg/mL (≈ 28.6 to 343 µM) | 3.5 to 12.5 µg/mL (≈ 8 to 28.6 µM) | 12.5 to 150 µg/mL (≈ 28.6 to 343 µM) | 12.5 to 150 µg/mL (≈ 28.6 to 343 µM)
CCc1c(-c2ccc3c(c2)c(C#N)cn3C)[nH]c(=O)c(C(=O)O)c1O [Cpd 359, 6-(3-cyano-1-methyl-1H-indol-5-yl)-5-ethyl-4-hydroxy-2-oxo-1,2-dihydropyridine-3-carboxylic acid] | 12.5 to 150 µg/mL (≈ 37.1 to 445 µM) | 3.5 to 12.5 µg/mL (≈ 10.4 to 37.1 µM) | 12.5 to 150 µg/mL (≈ 37.1 to 445 µM) | 1 to 3.5 µg/mL (≈ 2.96 to 10.4 µM)
